Data as given in ChEMBL document CHEMBL1275528, “RamA confers multidrug resistance in Salmonella enterica via increased expression of acrB, which is inhibited by chlorpromazine” (2008).
≈ marks a conversion by molar mass, not a printed value.

How the values were obtained:
[1] = Antimicrobial activity against Salmonella serovar Typhimurium SL1344 by broth dilution method; format: functional; details: Salmonella enterica
[2] = Antimicrobial activity against Salmonella serovar Typhimurium SL1344 expressing acrB::aph mutant by broth dilution method; format: functional; details: Salmonella enterica
[3] = Antimicrobial activity against Salmonella serovar Typhimurium SL1344 expressing acrD::aph mutant by broth dilution method; format: functional; details: Salmonella enterica
[4] = Antimicrobial activity against Salmonella serovar Typhimurium SL1344 expressing acrF::aph mutant by broth dilution method; format: functional; details: Salmonella enterica
[5] = Antimicrobial activity against Salmonella serovar Typhimurium SL1344 expressing tolC::aph mutant by broth dilution method; format: functional; details: Salmonella enterica
[6] = Antimicrobial activity against Salmonella serovar Typhimurium SL1344 expressing marA::aph mutant by broth dilution method; format: functional; details: Salmonella enterica
[7] = Antimicrobial activity against Salmonella serovar Typhimurium SL1344 expressing soxS::aph mutant by broth dilution method; format: functional; details: Salmonella enterica
[8] = Antimicrobial activity against Salmonella serovar Typhimurium SL1344 expressing ramA::aph mutant by broth dilution method; format: functional; details: Salmonella enterica
[9] = Antimicrobial activity against Salmonella serovar Typhimurium SL1344 by broth dilution method in presence of chlorpromazine; format: functional; details: Salmonella enterica
[10] = Antimicrobial activity against Salmonella serovar Typhimurium SL1344 expressing ramA::aph-pTRC hisA:ramA mutant by broth dilution method; format: functional; details: Salmonella enterica
[11] = Antimicrobial activity against Salmonella serovar Typhimurium SL1344 expressing ramA::aph-pTRC hisA:ramA mutant by broth dilution method in presence of IPTG; format: functional; details: Salmonella enterica
[12] = Antimicrobial activity against Salmonella serovar Typhimurium SL1344 expressing ramA::aph-pTRC hisA:ramA mutant by broth dilution method in presence of chlorpromzine; format: functional; details: Salmonella enterica
Salmonella typhimurium [13] = experiment: Antimicrobial activity against Salmonella serovar Typhimurium LT2 by broth dilution method; format: functional, Salmonella enterica subsp. enterica serovar Typhimurium; details: Salmonella enterica
Salmonella typhimurium [14] = experiment: Antimicrobial activity against Salmonella serovar Typhimurium 14028S by broth dilution method; format: functional, Salmonella enterica subsp. enterica serovar Typhimurium; details: Salmonella enterica
[15] = Antimicrobial activity against Salmonella serovar Binza 8269 by broth dilution method; format: functional, Salmonella enterica subsp. enterica serovar Binza; details: Salmonella enterica
Salmonella enteritidis = experiment: Antimicrobial activity against Salmonella serovar Enteritidis 5188 by broth dilution method; format: functional, Salmonella enterica subsp. enterica serovar Enteritidis; details: Salmonella enterica
[16] = Antimicrobial activity against Salmonella serovar Hadar by broth dilution method; format: functional, Salmonella enterica subsp. enterica serovar Hadar; details: Salmonella enterica
[17] = Antimicrobial activity against Salmonella serovar Heidelberg 5171 by broth dilution method; format: functional, Salmonella enterica subsp. enterica serovar Heidelberg; details: Salmonella enterica
[18] = Antimicrobial activity against Salmonella serovar Haifa 9878 by broth dilution method; format: functional, Salmonella enterica subsp. enterica serovar Haifa; details: Salmonella enterica
[19] = Antimicrobial activity against Salmonella serovar Kedougou by broth dilution method; format: functional, Salmonella enterica subsp. enterica serovar Kedougou; details: Salmonella enterica
[20] = Antimicrobial activity against Salmonella serovar Mbandaka 7892 by broth dilution method; format: functional, Salmonella enterica subsp. enterica serovar Mbandaka; details: Salmonella enterica
[21] = Antimicrobial activity against Salmonella serovar Montevideo 5747 by broth dilution method; format: functional, Salmonella enterica subsp. enterica serovar Montevideo; details: Salmonella enterica
[22] = Antimicrobial activity against Salmonella serovar Newport 129 by broth dilution method; format: functional, Salmonella enterica subsp. enterica serovar Newport; details: Salmonella enterica
[23] = Antimicrobial activity against Salmonella serovar Virchow 5742 by broth dilution method; format: functional, Salmonella enterica subsp. enterica serovar Virchow; details: Salmonella enterica
[24] = Antimicrobial activity against Salmonella serovar Typhimurium SL1344 assessed as ramA expression at 200 ug/ml; format: functional
[25] = Antimicrobial activity against Salmonella serovar Typhimurium SL1344 expressing acrB::aph mutant assessed as ramA expression at 200 ug/ml; format: functional
[26] = Antimicrobial activity against Salmonella serovar Typhimurium SL1344 assessed as acrB expression at 200 ug/ml; format: functional
[27] = Antimicrobial activity against Salmonella serovar Typhimurium SL1344 expressing ramA::aph mutant assessed as acrB expression at 200 ug/ml; format: functional

CN1CCN(CCCN2c3ccccc3Sc3ccc(C(F)(F)F)cc32)CC1 [TRIFLUOPERAZINE]
MIC [1]: 1020 mg/L (≈ 2510 µM)
MIC [2]: 64 mg/L (≈ 157 µM)
MIC [3]: 1020 mg/L (≈ 2510 µM)
MIC [4]: 1020 mg/L (≈ 2510 µM)
MIC [5]: 32 mg/L (≈ 78.5 µM)
MIC [6]: 1020 mg/L (≈ 2510 µM)
MIC [7]: 1020 mg/L (≈ 2510 µM)
MIC [8]: 1020 mg/L (≈ 2510 µM)

Cc1ccccc1C(OCCN(C)C)c1ccccc1 (stereo not drawn) [ORPHENADRINE]
MIC [1]: 1020 mg/L (≈ 3800 µM)
MIC [2]: 1020 mg/L (≈ 3800 µM)
MIC [3]: 1020 mg/L (≈ 3800 µM)
MIC [4]: 1020 mg/L (≈ 3800 µM)
MIC [5]: 1020 mg/L (≈ 3800 µM)
MIC [6]: 1020 mg/L (≈ 3800 µM)
MIC [7]: 1020 mg/L (≈ 3800 µM)
MIC [8]: 1020 mg/L (≈ 3800 µM)

CN(C)[C@@H]1C(O)=C(C(N)=O)C(=O)[C@@]2(O)C(O)=C3C(=O)c4c(O)cccc4[C@@](C)(O)[C@H]3C[C@@H]12 [TETRACYCLINE]
MIC [1]: 2 mg/L (≈ 4.5 µM)
MIC [8]: 2 mg/L (≈ 4.5 µM)
MIC [9]: 0.25 mg/L
MIC [10]: 4 mg/L (≈ 9 µM)
MIC [11]: 16 mg/L
MIC [12]: 8 mg/L

CSc1ccc2c(c1)N(CCC1CCCCN1C)c1ccccc1S2 (stereo not drawn) [THIORIDAZINE]
MIC [1]: 1020 mg/L (≈ 2760 µM)
MIC [2]: 32 mg/L (≈ 86.3 µM)
MIC [3]: 1020 mg/L (≈ 2760 µM)
MIC [4]: 1020 mg/L (≈ 2760 µM)
MIC [5]: 32 mg/L (≈ 86.3 µM)
MIC [6]: 1020 mg/L (≈ 2760 µM)
MIC [7]: 1020 mg/L (≈ 2760 µM)
MIC [8]: 1020 mg/L (≈ 2760 µM)

CC[n+]1c(-c2ccccc2)c2cc(N)ccc2c2ccc(N)cc21.[Br-] [HOMIDIUM BROMIDE]
MIC [1]: 1020 mg/L
MIC [8]: 1020 mg/L
MIC (Salmonella typhimurium [13]): 1020 mg/L
MIC (Salmonella typhimurium [14]): 2050 mg/L
MIC [15]: 1020 mg/L
MIC (Salmonella enteritidis): 1020 mg/L
MIC [16]: 1020 mg/L
MIC [17]: 512 mg/L
MIC [18]: 1020 mg/L
MIC [19]: 512 mg/L
MIC [20]: 1020 mg/L
MIC [21]: 1020 mg/L
MIC [22]: 1020 mg/L
MIC [23]: 1020 mg/L
MIC [9]: 8 mg/L
MIC [10]: 2050 mg/L
MIC [11]: 2050 mg/L
MIC [12]: 512 mg/L

CCn1cc(C(=O)O)c(=O)c2cc(F)c(N3CCNCC3)cc21 [NORFLOXACIN]
MIC [1]: 0.06 mg/L (≈ 0.188 µM)
MIC [8]: 0.25 mg/L (≈ 0.783 µM)
MIC (Salmonella typhimurium [13]): 0.06 mg/L (≈ 0.188 µM)
MIC (Salmonella typhimurium [14]): 0.06 mg/L (≈ 0.188 µM)
MIC [15]: 0.06 mg/L (≈ 0.188 µM)
MIC (Salmonella enteritidis): 0.06 mg/L (≈ 0.188 µM)
MIC [16]: 0.06 mg/L (≈ 0.188 µM)
MIC [17]: 0.06 mg/L (≈ 0.188 µM)
MIC [18]: 0.06 mg/L (≈ 0.188 µM)
MIC [19]: 0.06 mg/L (≈ 0.188 µM)
MIC [20]: 0.06 mg/L (≈ 0.188 µM)
MIC [21]: 0.06 mg/L (≈ 0.188 µM)
MIC [22]: 0.06 mg/L (≈ 0.188 µM)
MIC [23]: 0.06 mg/L (≈ 0.188 µM)
MIC [9]: 0.008 mg/L
MIC [10]: 0.25 mg/L (≈ 0.783 µM)
MIC [11]: 0.25 mg/L
MIC [12]: 0.25 mg/L

O=C(O)c1cn(C2CC2)c2cc(N3CCNCC3)c(F)cc2c1=O [CIPROFLOXACIN]
MIC [1]: 0.03 mg/L (≈ 0.0905 µM)
MIC [8]: 0.03 mg/L (≈ 0.0905 µM)
MIC [9]: 0.008 mg/L
MIC [10]: 0.03 mg/L (≈ 0.0905 µM)
MIC [11]: 0.03 mg/L
MIC [12]: 0.015 mg/L

CCn1cc(C(=O)O)c(=O)c2ccc(C)nc21 [NALIDIXIC ACID]
MIC [1]: 4 mg/L (≈ 17.2 µM)
MIC [8]: 4 mg/L (≈ 17.2 µM)
MIC [10]: 16 mg/L (≈ 68.9 µM)
MIC [11]: 64 mg/L
MIC [12]: 16 mg/L

O=C(N[C@H](CO)[C@H](O)c1ccc([N+](=O)[O-])cc1)C(Cl)Cl [CHLORAMPHENICOL]
MIC [1]: 4 mg/L (≈ 12.4 µM)
MIC [8]: 4 mg/L (≈ 12.4 µM)
MIC [9]: 0.015 mg/L
MIC [10]: 8 mg/L (≈ 24.8 µM)
MIC [11]: 32 mg/L
MIC [12]: 16 mg/L

Oc1cc(Cl)ccc1Oc1ccc(Cl)cc1Cl [TRICLOSAN]
MIC [1]: 0.12 mg/L (≈ 0.414 µM)
MIC [8]: 0.12 mg/L (≈ 0.414 µM)
MIC [10]: 0.25 mg/L (≈ 0.863 µM)
MIC [11]: 1 mg/L
MIC [12]: 0.25 mg/L

CN(C)CCCN1c2ccccc2Sc2ccc(Cl)cc21 [CHLORPROMAZINE]
MIC [1]: 512 mg/L (≈ 1610 µM)
MIC [2]: 32 mg/L (≈ 100 µM)
MIC [3]: 128 mg/L (≈ 401 µM)
MIC [4]: 128 mg/L (≈ 401 µM)
MIC [5]: 32 mg/L (≈ 100 µM)
MIC [6]: 256 mg/L (≈ 803 µM)
MIC [7]: 256 mg/L (≈ 803 µM)
MIC [8]: 256 mg/L (≈ 803 µM)
MIC [10]: 512 mg/L (≈ 1610 µM)
MIC [11]: 512 mg/L
fold change (FC) [24]: 0.4
fold change (FC) [25]: 0.7
fold change (FC) [26]: 2.6
fold change (FC) [27]: 1.6

CN(C)CCC=C1c2ccccc2CCc2ccccc21 [AMITRIPTYLINE]
MIC [1]: 512 mg/L (≈ 1850 µM)
MIC [2]: 256 mg/L (≈ 923 µM)
MIC [3]: 1020 mg/L (≈ 3690 µM)
MIC [4]: 512 mg/L (≈ 1850 µM)
MIC [5]: 256 mg/L (≈ 923 µM)
MIC [6]: 512 mg/L (≈ 1850 µM)
MIC [7]: 512 mg/L (≈ 1850 µM)
MIC [8]: 512 mg/L (≈ 1850 µM)

CO[C@@H]1[C@@H](OC(N)=O)[C@@H](O)[C@H](Oc2ccc3c(O)c(NC(=O)c4ccc(O)c(CC=C(C)C)c4)c(=O)oc3c2C)OC1(C)C [NOVOBIOCIN]
MIC [1]: 512 mg/L (≈ 836 µM)
MIC [8]: 256 mg/L (≈ 418 µM)
MIC [9]: 64 mg/L
MIC [10]: 512 mg/L (≈ 836 µM)
MIC [11]: 1020 mg/L
MIC [12]: 512 mg/L

CN(C)c1ccc(C(=C2C=CC(=[N+](C)C)C=C2)c2ccc(N(C)C)cc2)cc1.[Cl-] [GENTIAN VIOLET]
MIC [1]: 2 mg/L
MIC [8]: 2 mg/L
MIC [9]: 1 mg/L
MIC [10]: 2 mg/L
MIC [11]: 2 mg/L
MIC [12]: 0.5 mg/L

CN(C)c1ccc2cc3ccc(N(C)C)cc3nc2c1 [ACRIDINE ORANGE]
MIC [1]: 512 mg/L (≈ 1930 µM)
MIC [8]: 256 mg/L (≈ 965 µM)
MIC [9]: 512 mg/L
MIC [10]: 256 mg/L (≈ 965 µM)
MIC [11]: 512 mg/L
MIC [12]: 512 mg/L
